From patent publication US20210198258A1, “INTEGRIN ANTAGONISTS” (Oxurion NV, priority 2018, published 2021)

Legend:
[1] = test system: human umbilical vein endothelial cells (HUVECs); test: ORIS Cell Migration Assay; assay type: cell-based; settings: HUVEC, fibronectin-coated plates, 24 h migration
Experimental: Endothelial cell wound healing is mediated by endothelial cell migration and proliferation, both critical components of the angiogenesis process, and is routinely used as a surrogate model for in vitro angiogenic potential. The ORIS™ Cell Migration Assay was used with human umbilical vein endothelial cells (HUVECs).
HUVEC cells (SCCE-001, Cat no. 1000519, Merck Chemicals) were cultured in T175 flasks (Cat no 353112, falcon) in EndoGro Growth Medium (SCME-003, Merck Chemicals) and split when they reached 90-100% confluence.
For the assay, cells were used at passage 2 to 4 after thawing and at 80-90% confluency. At the beginning of the day, the fibronectin-coated Oris™ Cell Migration Assay Plates (Cat no #CMAFN.I01, AMS Biotechnology) were removed from refrigeration and placed at RT for 1 h. […]
Just prior to the end of the incubation, a 4 μg/mL calcein AM (Cat no 354217, Beckton Dickinson) solution was prepared in pre-warmed HBSS (Cat no 14025, Gibco). […] After incubation the fluorescence was read at 494 nm excitation and 517 nm emission wavelengths using the Flexstation and the SofiMax Pro 5.4.5 software (Molecular Devices). The fluorescence was read from the bottom of the plates with the lid on to keep them sterile. The masks were then removed and pictures were taken with the Axiovert fluorescence microscope (Zeiss) using reflected light, GFP and a 2.5× objective.

[2] = test system: RPE-choroid sclera explants; settings: read-out: IC50 vessel outgrowth; murine choroid explants in fibrin gel, 3 to 4 days
Source text: The assay is based on a murine microvascular angiogenesis explant model, which closely mimics in viva choroidal angiogenesis. […] The choroidal explant model or briefly EMCA model allows for rapid evaluation of new anti-angiogenic therapeutics, with the additional benefit of excluding the potential lack of exposure often encountered when testing small molecules in animal eyes. RPE-choroid sclera explants (hereinafter referred to as choroid explants) are embedded in a three-dimensional fibrinogen/fibrin gel. Addition of serum-containing medium induces extensive endothelial cell sprout outgrowth into the matrix after 3 to 4 days in culture.
All experiments were performed using 4 to 5-weeks old male C57BL/6J mice (Charles River Laboratories France), housed under standard laboratory conditions according to a normal day/night rhythm with ad libitum access to food and water. […]
After 3 to 4 days, bright field pictures were taken at 2.5× magnification with the Axio Vert.A1 inverted microscope (Zeiss) using ZEN lite 2012 microscope software (Zeiss). […] Further analysis was performed in Microsoft Excel, where the sprouting area of endothelial organotypic culture was quantified by subtracting the area of the tissue explant from the total area occupied by the sprouts.

CC(C)[C@H]1C(=O)N[C@@H](CCCN=C(N)N)C(=O)NCC(=O)N[C@@H](CC(=O)O)C(=O)N[C@H](Cc2ccccc2)C(=O)N1C [Cilengitide]
IC50 [1]: 100 µM | IC50 [2]: ~300 µM
